Data as given in the supplement of paper PMC11061612.

How the values were obtained:
Gemcitabine = compound: Nc1ccn([C@@H]2O[C@H](CO)[C@@H](O)C2(F)F)c(=O)n1 [Gemcitabine]; settings: max 0.3 µM
Summary of the method: (§1)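 Cancer cell lines were seeded in 1536-well plates in 7.5 μl DMEM/F12 or RPMI with 10% FBS, held 24 hours at 37°C and 5% CO2, then dosed for 72 hours (final DMSO typically 0.2%). Viability was read by CellTiter-Glo 2.0 luminescence and scaled between blank-well and DMSO-well means. The single-agent IC50 comes from dose responses fitted to a two-parameter logistic curve with a non-linear mixed effects model.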

Gefitinib = compound: COc1cc2ncnc(Nc3ccc(F)c(Cl)c3)c2cc1OCCCN1CCOCC1 [Gefitinib]; settings: max 10 µM
Summary of the method: as §1

5-Fluorouracil = compound: O=c1[nH]cc(F)c(=O)[nH]1 [5-Fluorouracil]; settings: max 20 µM
Summary of the method: as §1

AZD8186 = compound: C[C@@H](Nc1cc(F)cc(F)c1)c1cc(C(=O)N(C)C)cc2c(=O)cc(N3CCOCC3)oc12 [AZD8186]
Summary of the method: as §1

AZD1390 = compound: CC(C)n1c(=O)n(C)c2cnc3cc(F)c(-c4ccc(OCCCN5CCCCC5)nc4)cc3c21 [AZD1390]; settings: max 0.3 µM
Summary of the method: as §1

AZD2811 = compound: CCN(CCO)CCCOc1ccc2c(Nc3cc(CC(=O)Nc4cccc(F)c4)[nH]n3)ncnc2c1 [AZD2811]; settings: max 1 µM
Summary of the method: as §1

Paclitaxel = compound: CC(=O)O[C@H]1C(=O)[C@@]2(C)[C@H]([C@H](OC(=O)c3ccccc3)[C@]3(O)C[C@H](OC(=O)[C@H](O)[C@@H](NC(=O)c4ccccc4)c4ccccc4)C(C)=C1C3(C)C)[C@]1(OC(C)=O)CO[C@@H]1C[C@@H]2O [Paclitaxel]; settings: max 3 µM
Summary of the method: as §1

Dasatinib = compound: CC1=C(C(=CC=C1)Cl)NC(=O)C2=CN=C(S2)NC3=CC(=NC(=N3)C)N4CCN(CC4)CCO [Dasatinib]; settings: max 2 µM
Summary of the method: as §1

AZD5363 = compound: C1CN(CCC1(C(=O)N[C@@H](CCO)C2=CC=C(C=C2)Cl)N)C3=NC=NC4=C3C=CN4 [AZD5363]; settings: max 10 µM
Summary of the method: as §1

Trametinib = compound: CC(=O)Nc1cccc(-n2c(=O)n(C3CC3)c(=O)c3c(Nc4ccc(I)cc4F)n(C)c(=O)c(C)c32)c1 [Trametinib]; settings: max 1 µM
Summary of the method: as §1

MK-2206 = compound: NC1(c2ccc(-c3nc4ccn5c(=O)[nH]nc5c4cc3-c3ccccc3)cc2)CCC1 [MK-2206]; settings: max 10 µM
Summary of the method: as §1

AZD6738 = compound: C[C@@H]1COCCN1C2=NC(=NC(=C2)C3(CC3)[S@](=N)(=O)C)C4=C5C=CNC5=NC=C4 [AZD6738]; settings: max 10 µM
Summary of the method: as §1

Selumetinib = compound: Cn1cnc2c(F)c(Nc3ccc(Br)cc3Cl)c(C(=O)NOCCO)cc21 [Selumetinib]; settings: max 10 µM
Summary of the method: as §1

SG3199 = compound: CC1=CN2[C@@H](C1)C=NC3=CC(=C(C=C3C2=O)OC)OCCCCCOC4=C(C=C5C(=C4)N=C[C@@H]6CC(=CN6C5=O)C)OC [SG3199]; settings: max 0.001 µM
Summary of the method: as §1

Taselisib = compound: Cc1nc(-c2cn3c(n2)-c2ccc(-c4cnn(C(C)(C)C(N)=O)c4)cc2OCC3)n(C(C)C)n1 [Taselisib]; settings: max 10 µM
Summary of the method: as §1

AZD5153 = compound: COc1nnc2ccc(N3CCC(c4ccc(OCCN5CCN(C)C(=O)[C@H]5C)cc4)CC3)nn12 [AZD5153]; settings: max 1 µM
Summary of the method: as §1

[1] = compound: O=C(Nc1ccc2[nH]nc(-c3ccncc3)c2c1)[C@@H]1CCN(CC(=O)N2CCN(c3ccc(-c4ncccn4)cc3)CC2)C1; settings: max 5 µM
Summary of the method: as §1

AZD0156 = compound: CN(C)CCCOc1ccc(-c2ccc3ncc4c(c3c2)n(C2CCOCC2)c(=O)n4C)cn1 [AZD0156]; settings: max 3 µM
Summary of the method: as §1

Savolitinib = compound: C[C@@H](c1ccc2nccn2c1)n1nnc2ncc(-c3cnn(C)c3)nc21 [Savolitinib]; settings: max 1 µM
Summary of the method: as §1

Crizotinib = compound: C[C@@H](Oc1cc(-c2cnn(C3CCNCC3)c2)cnc1N)c1c(Cl)ccc(F)c1Cl [Crizotinib]; settings: max 10 µM
Summary of the method: as §1

Palbociclib = compound: CC(=O)c1c(C)c2cnc(Nc3ccc(N4CCNCC4)cn3)nc2n(C2CCCC2)c1=O [Palbociclib]; settings: max 10 µM
Summary of the method: as §1

Doxorubicin = compound: COc1cccc2c1C(=O)c1c(O)c3c(c(O)c1C2=O)C[C@@](O)(C(=O)CO)C[C@@H]3O[C@H]1C[C@H](N)[C@H](O)[C@H](C)O1 [Doxorubicin]; settings: max 1 µM
Summary of the method: as §1

Etoposide = compound: COc1cc([C@@H]2c3cc4c(cc3[C@@H](O[C@@H]3O[C@@H]5CO[C@@H](C)O[C@H]5[C@H](O)[C@H]3O)[C@H]3COC(=O)[C@H]23)OCO4)cc(OC)c1O [Etoposide]; settings: max 10 µM
Summary of the method: as §1

AZD5991 = compound: Cc1c2c(nn1C)CSCc1cc(n(C)n1)CSc1cc(c3ccccc3c1)OCCCc1c(C(=O)O)n(C)c3c-2c(Cl)ccc13 [AZD5991]; settings: max 1 µM
Summary of the method: as §1

Venetoclax = compound: CC1(C)CCC(CN2CCN(c3ccc(C(=O)NS(=O)(=O)c4ccc(NCC5CCOCC5)c([N+](=O)[O-])c4)c(Oc4cnc5[nH]ccc5c4)c3)CC2)=C(c2ccc(Cl)cc2)C1 [Venetoclax]; settings: max 1 µM
Summary of the method: as §1

Lapatinib = compound: CS(=O)(=O)CCNCc1ccc(-c2ccc3ncnc(Nc4ccc(OCc5cccc(F)c5)c(Cl)c4)c3c2)o1 [Lapatinib]; settings: max 10 µM
Summary of the method: as §1

Alisertib = compound: COc1cc(Nc2ncc3c(n2)-c2ccc(Cl)cc2C(c2c(F)cccc2OC)=NC3)ccc1C(=O)O [Alisertib]; settings: max 10 µM
Summary of the method: as §1

Prexasertib = compound: COc1cccc(OCCCN)c1-c1cc(Nc2cnc(C#N)cn2)n[nH]1 [Prexasertib]; settings: max 1 µM
Summary of the method: as §1

Olaparib = compound: O=C(c1cc(Cc2n[nH]c(=O)c3ccccc23)ccc1F)N1CCN(C(=O)C2CC2)CC1 [Olaparib]; settings: max 10 µM
Summary of the method: as §1

SRA737 = compound: N#Cc1cnc(Nc2cc(NC[C@H]3CNCCO3)c(C(F)(F)F)cn2)cn1 [SRA737]; settings: max 10 µM
Summary of the method: as §1

AZD7648 = compound: Cc1cc2ncnn2cc1Nc1ncc2c(n1)n(C1CCOCC1)c(=O)n2C [AZD7648]; settings: max 10 µM
Summary of the method: as §1

AZD1775 = compound: C=CCn1c(=O)c2cnc(Nc3ccc(N4CCN(C)CC4)cc3)nc2n1-c1cccc(C(C)(C)O)n1 [AZD1775]; settings: max 3 µM
Summary of the method: as §1

Carboplatin = compound: C1CC(C1)(C(=O)[O-])C(=O)[O-].N.N.[Pt+2] [Carboplatin]; settings: max 10 µM
Summary of the method: as §1

SN-38 = compound: CCc1c2c(nc3ccc(O)cc13)-c1cc3c(c(=O)n1C2)COC(=O)[C@]3(O)CC [SN-38]; settings: max 0.3 µM
Summary of the method: as §1

AZD4320 = compound: CN(CC[C@H](CSC1=CC=CC=C1)NC2=C(C=C(C=C2)S(=O)(=O)NC(=O)C3=CC=C(C=C3)N4CCC(CC4)[C@H](C5=CC=CC=C5C6=CC=C(C=C6)Cl)O)S(=O)(=O)C(F)(F)F)CCO [AZD4320]; settings: max 1 µM
Summary of the method: as §1

Capivasertib = compound: C1CN(CCC1(C(=O)N[C@@H](CCO)C2=CC=C(C=C2)Cl)N)C3=NC=NC4=C3C=CN4 [Capivasertib]; settings: max 10 µM
Summary of the method: as §1

Row | Cell Line | IC50, cell viability 72 h (Gemcitabine) [nM] | IC50, cell viability 72 h (Gefitinib) [µM] | IC50, cell viability 72 h (5-Fluorouracil) [µM] | IC50, cell viability 72 h (AZD8186; max 10 µM) [µM] | IC50, cell viability 72 h (AZD1390) [nM] | IC50, cell viability 72 h (AZD2811) [nM] | IC50, cell viability 72 h (Paclitaxel) [nM] | IC50, cell viability 72 h (Dasatinib) [nM] | IC50, cell viability 72 h (AZD5363) [µM] | IC50, cell viability 72 h (Trametinib) [nM] | IC50, cell viability 72 h (MK-2206) [µM] | IC50, cell viability 72 h (AZD6738) [µM] | IC50, cell viability 72 h (Selumetinib) [µM] | IC50, cell viability 72 h (SG3199) [nM] | IC50, cell viability 72 h (Taselisib) [µM] | IC50, cell viability 72 h (AZD5153) [nM] | IC50, cell viability 72 h [1] [µM] | IC50, cell viability 72 h (AZD0156) [nM] | IC50, cell viability 72 h (Savolitinib) [nM] | IC50, cell viability 72 h (Crizotinib) [µM] | IC50, cell viability 72 h (Palbociclib) [µM] | IC50, cell viability 72 h (Doxorubicin) [nM] | IC50, cell viability 72 h (Etoposide) [µM] | IC50, cell viability 72 h (AZD5991) [nM] | IC50, cell viability 72 h (Venetoclax) [nM] | IC50, cell viability 72 h (Lapatinib) [µM] | IC50, cell viability 72 h (Alisertib) [µM] | IC50, cell viability 72 h (Prexasertib) [nM] | IC50, cell viability 72 h (Olaparib) [µM] | IC50, cell viability 72 h (SRA737) [µM] | IC50, cell viability 72 h (AZD7648) [µM] | IC50, cell viability 72 h (AZD1775) [nM] | IC50, cell viability 72 h (Carboplatin) [µM] | IC50, cell viability 72 h (SN-38) [nM] | IC50, cell viability 72 h (AZD4320) [nM] | IC50, cell viability 72 h (AZD8186; max 3 µM) [µM] | IC50, cell viability 72 h (Capivasertib) [nM]
1 | MKN28 (Gastric Carcinoma) | > 300 | > 10 | > 20 | > 10 | > 300 | > 1000 | 1440 | > 2000 | > 10 | > 1000 | > 10 | > 10 | > 10 | > 1 | > 10 | > 1000 | > 5 | > 3000 | > 1000 | > 10 | > 10 | > 1000 | > 10 | > 1000 | > 1000 | > 10 | > 10 | 456 | > 10 | > 10 | > 10 | > 3000 | > 10 | > 300 | > 1000 | – | –
2 | CAMA-1 (Breast Carcinoma) | > 300 | > 10 | > 20 | 7.76 | > 300 | > 1000 | 112 | > 2000 | 4.86 | > 1000 | > 10 | > 10 | > 10 | > 1 | > 10 | > 1000 | > 5 | > 3000 | > 1000 | > 10 | > 10 | > 1000 | > 10 | > 1000 | > 1000 | > 10 | > 10 | > 1000 | > 10 | > 10 | > 10 | > 3000 | > 10 | > 300 | > 1000 | – | –
3 | TE-6 (Esophageal Squamous Cell Carcinoma) | – | 1.75 | – | – | > 300 | > 1000 | – | > 2000 | – | > 1000 | 6.61 | 9.32 | > 10 | > 1 | 0.245 | 396 | – | > 3000 | > 1000 | > 10 | > 10 | > 1000 | – | 940 | > 1000 | 3.4 | 6 | 893 | > 10 | – | > 10 | > 3000 | – | > 300 | > 1000 | > 3 | 2840
